The text below walks through data of ChEMBL document CHEMBL1127878, “Substituted lactam biphenyltetrazoles as angiotensin II mediated antihypertensives” (Bioorg Med Chem Lett, 1994).

In test [1] the target is T1, Type-1 angiotensin II receptor (Oryctolagus cuniculus, UniProt P34976).
T1 sequence (P34976 whole entry): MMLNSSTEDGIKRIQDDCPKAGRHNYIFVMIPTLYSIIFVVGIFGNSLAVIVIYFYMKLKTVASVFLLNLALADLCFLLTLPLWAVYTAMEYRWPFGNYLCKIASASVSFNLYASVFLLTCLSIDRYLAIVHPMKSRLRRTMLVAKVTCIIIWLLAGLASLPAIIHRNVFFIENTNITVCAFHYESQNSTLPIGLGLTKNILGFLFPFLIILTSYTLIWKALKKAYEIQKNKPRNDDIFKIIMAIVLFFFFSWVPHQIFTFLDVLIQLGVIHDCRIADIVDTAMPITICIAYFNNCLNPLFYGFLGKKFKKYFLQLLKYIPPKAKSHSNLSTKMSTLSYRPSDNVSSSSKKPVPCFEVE
In words: In vitro binding affinity against Angiotensin II receptor in rabbit aorta rings. Type of test: tissue-based. To be noted: read-out: pA2 (converted).

The test system of test [2] is Rattus norvegicus. In words: Tested for percent of maximal blood pressure drop in high renin rat after peroral administration of 30 mg/kg of dose. The class given is functional. To be noted: route oral.
Test [3] concerns Rattus norvegicus. The test is described as follows: Tested for total duration time(BP) after peroral administration of 30 mg/kg of dose in spontaneously hypertensive rat. The class given is functional. To be noted: route oral.
For test [4], the system named is Rattus norvegicus. In words: Tested for total onset time(BP) after peroral administration of 30 mg/kg of dose in spontaneously hypertensive rat. The class given is functional. Particulars: route oral.
Test [5] has as its system Rattus norvegicus. In words: Tested for percent of maximal blood pressure drop after peroral administration of 30 mg/kg in spontaneously hypertensive rat. To be noted: route oral. The class given is functional.
The subject of test [6] is Rattus norvegicus. In words: Tested for total duration time(BP) after peroral administration of 30 mg/kg of dose in high renin rat. Type of test: functional. To be noted: route oral.
The test system of test [7] is Rattus norvegicus. In words: Tested for total onset time(BP) after peroral administration of 30 mg/kg of dose in high renin rat. To be noted: route oral. Type of test: functional.
Test [8] deals with Rattus norvegicus. In words: Dose (iv) required for graded reduction in mean arterial blood pressure in spontaneously hypertensive rat (also, 10 mg/kg). The class given is functional.

Bounds are passed on as bounds.

Regarding `CCOC(=O)/C=C1\C2C3C=CC(CCC3)C2C(=O)N1Cc1ccc(-c2ccccc2-c2nn[nH]n2)cc1` (configuration not stated), in test [1], the Kb is 20 nM. Besides, the Max drop in the test with Rattus norvegicus [2] and with Rattus norvegicus [5] was 96% each time. This molecule also registered a Duration with Rattus norvegicus [3] of 24 h. The molecule further displayed an Onset with Rattus norvegicus [4] of 0.25 h.

For `CCOC(=O)/C=C1\C2C3CCC(C3)C2C(=O)N1Cc1ccc(-c2ccccc2-c2nn[nH]n2)cc1` (configuration not stated), in test [1], the Kb was 1 nM. The molecule also showed a Max drop with Rattus norvegicus [2] of 26%. Also, the Duration with Rattus norvegicus [6] turned out to be 17 h. Also, in the test with Rattus norvegicus [7], the Onset was 1 h.

As for `CCOC(=O)/C=C1\CC2(CCCC2)C(=O)N1Cc1ccc(-c2ccccc2-c2nn[nH]n2)cc1`, the Kb in test [1] is 3.16 nM. In addition, the Max drop in the test with Rattus norvegicus [2] stood at 20%. The Duration with Rattus norvegicus [6] is 3 h. The same molecule came in with an Onset with Rattus norvegicus [7] of 2 h.

Take `CCOC(=O)/C=C1\CC(C)(C(C)C)CC(=O)N1Cc1ccc(-c2ccccc2-c2nn[nH]n2)cc1` (configuration not stated): in test [1], the Kb was 15.8 nM. The Max drop in the test with Rattus norvegicus [2] and in the test on Rattus norvegicus [5] was 70% in each case. In addition, the Duration in the test with Rattus norvegicus [3] was found to be 5 h. In the test with Rattus norvegicus [4], this molecule registered an Onset of 1.25 h.

Take `CCCCC1(C)CC(=O)N(Cc2ccc(-c3ccccc3-c3nn[nH]n3)cc2)/C(=C/C(=O)OCC)C1` (configuration not stated): in test [1], the Kb was 31.6 nM. Also, the Max drop in the test on Rattus norvegicus [2] and in the test on Rattus norvegicus [5] was 98% each time. In the test on Rattus norvegicus [3], this molecule registered a Duration of 24 h. In addition, the Onset in the test on Rattus norvegicus [4] is 0.5 h.

Regarding `CCOC(=O)/C=C1\CC2(CCCCCC2)C(=O)N1Cc1ccc(-c2ccccc2-c2nn[nH]n2)cc1`, the Kb in test [1] is 3.98 nM. Besides, the Max drop in the test on Rattus norvegicus [2] is reported as 31%; in the test on Rattus norvegicus [5] it was 80%. In addition, the Duration with Rattus norvegicus [6] was 23 h; in the test with Rattus norvegicus [3], 16 h. For the same molecule, the results for the Onset in the test on Rattus norvegicus [7] and in the test with Rattus norvegicus [4] were 0.75 h and 1.5 h, respectively.

For the molecule `CCOC(=O)/C=C1\CC2(CCCCC2)C(=O)N1Cc1ccc(-c2ccccc2-c2nn[nH]n2)cc1`, the Kb in test [1] was 12.6 nM. In addition, in the test on Rattus norvegicus [2], the Max drop turned out to be 26%. The same molecule yielded a Duration in the test with Rattus norvegicus [6] of 17 h. The Onset in the test on Rattus norvegicus [7] stood at 1 h.

As for `CCCC1(CC)CC(=O)N(Cc2ccc(-c3ccccc3-c3nn[nH]n3)cc2)/C(=C/C(=O)OCC)C1` (configuration not stated), the Kb in test [1] is 12.6 nM. Further, the Max drop with Rattus norvegicus [2] and with Rattus norvegicus [5] was 18% in each case. In addition, the Duration in the test on Rattus norvegicus [3] came out at 6 h. In the test with Rattus norvegicus [4], this molecule showed an Onset of 3 h.

For the molecule `CCOC(=O)/C=C1\CC2(CCCC2)CC(=O)N1Cc1ccc(-c2ccccc2-c2nn[nH]n2)cc1`, in test [1], the Kb was 12.6 nM. In the test on Rattus norvegicus [2], this molecule yielded a Max drop of 46%. Moreover, the Duration with Rattus norvegicus [6] came to 21 h. The molecule also had an Onset in the test with Rattus norvegicus [7] of 2.5 h.

Take `CCOC(=O)/C=C1\CC(C)(C)CC(=O)N1Cc1ccc(-c2ccccc2-c2nn[nH]n2)cc1`: the Kb in test [1] was 39.8 nM. In addition, the Max drop in the test on Rattus norvegicus [2] came out at 17%. The molecule further displayed a Duration in the test on Rattus norvegicus [6] of 5 h. The Onset in the test on Rattus norvegicus [7] came out at 2 h.

Take `CCOC(=O)/C=C1\CC2(CCCCC2)CC(=O)N1Cc1ccc(-c2ccccc2-c2nn[nH]n2)cc1`: the Kb in test [1] was 5.01 nM. Moreover, the Max drop with Rattus norvegicus [2] and in the test on Rattus norvegicus [5] was 100% throughout. Further, the Duration in the test on Rattus norvegicus [3] is 8 h. Further, the Onset in the test with Rattus norvegicus [4] was 0.25 h.

In the case of `CCCCC1(CC)CC(=O)N(Cc2ccc(-c3ccccc3-c3nn[nH]n3)cc2)/C(=C/C(=O)OCC)C1` (configuration not stated), in test [1], the Kb is 100 nM. For the same molecule, the Max drop with Rattus norvegicus [2] and in the test with Rattus norvegicus [5] was 55% throughout. The molecule further registered a Duration in the test with Rattus norvegicus [3] of 8 h. For the same molecule, the Onset in the test with Rattus norvegicus [4] was determined as 0.25 h.

On to `CCOC(=O)/C=C1\C2C3C=CC(CC3)C2C(=O)N1Cc1ccc(-c2ccccc2-c2nn[nH]n2)cc1` (stereo in doubt; 5), for which the Kb in test [1] is 6.31 nM. Further, the Max drop in the test with Rattus norvegicus [2] (30 mg/kg) came to 29%. The Duration with Rattus norvegicus [6] (30 mg/kg) came to 17 h. This molecule displayed an Onset in the test on Rattus norvegicus [7] (30 mg/kg) of 1.75 h.

`CCOC(=O)/C=C1\C2C3C=CC(CC3)C2C(=O)N1Cc1ccc(-c2ccccc2-c2nn[nH]n2)cc1` (stereo in doubt; 7): the Kb in test [1] was 10 nM. For the same molecule, the Max drop with Rattus norvegicus [2] (30 mg/kg) is 43%; with Rattus norvegicus [5], 86%. Moreover, the values for the Duration with Rattus norvegicus [6] (30 mg/kg) and with Rattus norvegicus [3] were 10 h and 13 h, respectively. Moreover, the results for the Onset with Rattus norvegicus [7] (30 mg/kg) and with Rattus norvegicus [4] were 0.25 h and 1 h, respectively.

`CCOC(=O)/C=C1\CC(C)(CC)CC(=O)N1Cc1ccc(-c2ccccc2-c2nn[nH]n2)cc1` (stereo in doubt; 9): in test [1], the Kb was 1 nM. Also, in the test on Rattus norvegicus [8], the Dose is 3 mg/kg. Moreover, the Max drop in the test on Rattus norvegicus [2] (30 mg/kg) and with Rattus norvegicus [5] (30 mg/kg) was 100% in each case. The results for the Duration in the test on Rattus norvegicus [6] and in the test with Rattus norvegicus [3] (30 mg/kg) were <24 h and 24 h, respectively. Moreover, the Onset in the test with Rattus norvegicus [7] and in the test with Rattus norvegicus [4] (30 mg/kg) was 0.25 h in each case.

For `CCOC(=O)/C=C1\CC(CC)(CC)CC(=O)N1Cc1ccc(-c2ccccc2-c2nn[nH]n2)cc1` (stereo in doubt; 11), the Kb in test [1] was 3.98 nM. The Max drop in the test with Rattus norvegicus [2] (30 mg/kg) and with Rattus norvegicus [5] (30 mg/kg) was 35% in each case. Besides, in the test with Rattus norvegicus [3] (30 mg/kg), the Duration came to 15 h. Besides, the Onset in the test on Rattus norvegicus [4] (30 mg/kg) stood at 0.75 h.

For `CCOC(=O)/C=C1\CC(C)(CC)CC(=O)N1Cc1ccc(-c2ccccc2-c2nn[nH]n2)cc1` (stereo in doubt; 13), the Kb in test [1] was 2.51 nM. Also, the Max drop with Rattus norvegicus [2] (30 mg/kg) and with Rattus norvegicus [5] (30 mg/kg) was 58% each time. The same molecule gave a Duration in the test on Rattus norvegicus [3] (30 mg/kg) of 16 h. Further, the Onset in the test on Rattus norvegicus [4] (30 mg/kg) is 0.5 h.

Regarding `CCOC(=O)/C=C1\CC(CC)(CC)CC(=O)N1Cc1ccc(-c2ccccc2-c2nn[nH]n2)cc1` (stereo in doubt; 16), the Kb in test [1] was 7.94 nM. For the same molecule, the Max drop in the test with Rattus norvegicus [2] (30 mg/kg) and with Rattus norvegicus [5] (30 mg/kg) was 100% in each case. For the same molecule, the Duration in the test with Rattus norvegicus [3] (30 mg/kg) was 24 h. This molecule also came in with an Onset with Rattus norvegicus [4] (30 mg/kg) of 0.25 h.

Regarding `CCCCc1nc(Cl)c(CO)n1Cc1ccc(-c2ccccc2-c2nnn[nH]2)cc1` [LOSARTAN], the Max drop in the test with Rattus norvegicus [2] and in the test with Rattus norvegicus [5] was 100% throughout. For the same molecule, the Duration with Rattus norvegicus [6] and in the test on Rattus norvegicus [3] was 24 h throughout. In addition, the Onset in the test on Rattus norvegicus [7] and in the test with Rattus norvegicus [4] was 2 h in each case.
